{"source": "patent US6864061B2", "about": "“Method for screening compounds for anti-inflammatory activity” (GeneTrol Biotherapeutics, Inc., priority 2000, dated 2005)", "type_in_all_cases": "cell-based, human", "key": {"[1]": {"system": "PKR-overexpressing Namalwa cells (Nam-PKR), IFN-alpha production", "assay": "Dose-response inhibition of IFN-alpha production in PMA and poly r(I):poly r(C) treated PKR-overexpressing Namalwa cells", "details": "FIG. 3"}, "[2]": {"system": "PKR-overexpressing Namalwa cells (Nam-PKR), TNF-alpha production", "assay": "TNF-alpha production in PMA/poly I:C-induced PKR-overexpressing Namalwa cells (ELISA)", "details": "1 mM 2-AP, 20 mM PMA priming 20 hr, 200 μg/ml poly I:C induction 3 days, FIG. 2A", "method": "(§1) PKR-transfected Namalwa cells (Nam-PKR) were cultured at 2.5×10^5 cells/ml in DMEM/F12 medium supplemented with 10% FBS. The cells were treated with 20 mM PMA (priming) for 20 hr followed by treatment with 200 μg/ml poly I:C (induction) for 3 days in the presence of 1 mM 2-aminopurine (2-AP) or in the absence of 2-AP. One set of cells was left untreated (non-induced controls). Following treatment, the culture supernatants were collected and analyzed for TNF-alpha or for TNF-beta by ELISA according to the procedure provided by the supplier of the ELISA kits (R&D Systems). The data for cytokine induction is shown in FIGS. 2A and 2B, which illustrates that the PKR-overexpressing Namalwa cell line produces a high level of proinflammatory cytokine (TNF-alpha) under induction conditions (FIG. 2A) and that the induced levels of TNF-alpha are about 4-fold lower in the presence of the PKR inhibitor, 2-AP."}, "[3]": {"system": "PKR-overexpressing Namalwa cells (Nam-PKR), TNF-beta production", "assay": "TNF-beta production in PMA/poly I:C-induced PKR-overexpressing Namalwa cells (ELISA)", "details": "1 mM 2-AP; 20 mM PMA priming 20 hr, 200 μg/ml poly I:C induction 3 days; FIG. 2B", "method": "as §1"}}, "data": [{"smiles": "Nc1ncc2[nH]cnc2n1", "note": "[2-AP, 2-aminopurine]", "values": [{"measurement": "inhibition of IFN-alpha production at 1 mM (in words)", "setting": "[1]; 1 mM 2-AP, both experiments", "result": "relatively ineffective"}, {"measurement": "inhibition of IFN-alpha production at 8 mM (in words)", "setting": "[1]; 8 mM 2-AP", "result": "completely inhibited"}, {"measurement": "inhibition of IFN-alpha at 5 mM relative to 1 mM", "setting": "[1]; first experiment", "result": 360, "unit": "fold"}, {"measurement": "inhibition of INF-alpha production between 1 mM and 5 mM", "setting": "[1]; second experiment", "result": 5, "unit": "fold"}, {"measurement": "suppression of TNF-alpha production level, with vs without the PKR inhibitor", "setting": "[2]", "result": "about 4 fold"}, {"measurement": "suppression of TNF-alpha production level, with vs without the PKR inhibitor", "setting": "[2]; listed as 2 AP", "result": 4, "unit": "fold"}, {"measurement": "suppression of TNF-beta production level, with vs without the PKR inhibitor", "setting": "[3]", "result": 5, "unit": "fold"}]}]}
